Patent publication US9328093B2, “Selective inhibitors of ubiquitin specific protease 7, the pharmaceutical compositions thereof and their therapeutic applications” (HYBRIGENICS SA, priority 2010, dated 2016)

Tests used:
UCH-L3 = molecular target: T1, UCH-L3 (Homo sapiens, UniProt P15374); test: UCH-L3 activity assay (Ub-AMC substrate); type: biochemical; details: Ub-AMC 300 nM, UCH-L3 13 pM
T1 sequence (P15374 1-230): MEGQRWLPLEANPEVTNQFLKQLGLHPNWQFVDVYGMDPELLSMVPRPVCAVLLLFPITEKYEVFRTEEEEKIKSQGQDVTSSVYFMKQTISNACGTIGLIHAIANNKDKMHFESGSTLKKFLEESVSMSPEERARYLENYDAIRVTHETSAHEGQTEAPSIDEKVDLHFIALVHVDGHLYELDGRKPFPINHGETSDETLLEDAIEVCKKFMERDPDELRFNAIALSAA
Experimental: UCH-L3 was diluted in USP buffer (50 mM Tris HCl; 0.5 mM EDTA; 5 mM DTT; 0.01% Triton X-100; Bovine Serum Albumin 0.05 mg·ml^−1 pH7.6). Compounds stocks (100 mM) were stored at −20° C. in DMSO. Compounds were tested at different concentrations: from 200 μM to 91 nM.
(§1) Reactions were performed as duplicates in Black 384 well plates (small volume microplates; Greiner; 10 μl final reaction volume). The substrate concentration for UCH-L3 was 300 nM Ub-AMC (Boston Biochem). The concentration of the enzyme (UCH-L3) in specificity assays was 13 pM. The concentrations were determined in order to perform specificity assays under initial velocities at fixed substrate concentration. Compounds were pre-incubated with enzymes for 30 minutes at 25° C. Reactions were initiated by addition of substrate to the plates containing the enzymes (+/− compounds) diluted in assay buffer. Reactions were incubated for 60 minutes at 37° C. Reactions were stopped by adding acetic acid (100 mM final). Readings were performed on a Pherastar Fluorescent Reader (BMG). λ Emission 380 nm; λ Excitation=460 nm. Data (mean values +/− standard deviation) were analyzed as % of control (no compound) and plotted as percentage versus the Log of the compound concentration using GraphPad (Prism). Data were fitted to a sigmoidal model (variable slope).

UCH-L1 = molecular target: T2, UCH-L1 (Homo sapiens, UniProt P09936); test: UCH-L1 activity assay (Ub-AMC substrate); type: biochemical; details: Ub-AMC 300 nM, UCH-L1 2.5 nM
T2 sequence (P09936 1-223): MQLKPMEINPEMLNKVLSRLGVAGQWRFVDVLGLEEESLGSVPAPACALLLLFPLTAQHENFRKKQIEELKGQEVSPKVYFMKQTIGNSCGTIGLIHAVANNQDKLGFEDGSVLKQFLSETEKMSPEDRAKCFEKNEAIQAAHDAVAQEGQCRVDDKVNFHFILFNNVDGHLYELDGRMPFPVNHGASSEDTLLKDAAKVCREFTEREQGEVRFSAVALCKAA
Experimental: UCH-L1 was diluted in USP buffer (50 mM Tris HCl; 0.5 mM EDTA; 5 mM DTT; 0.01% Triton X-100; Bovine Serum Albumin 0.05 mg·ml^−1 pH7.6). Compounds stocks (100 mM) were stored at −20° C. in DMSO. Compounds were tested at different concentrations: from 200 μM to 91 nM.
as §1, with “UCH-L1” for “UCH-L3”, “(UCH-L1)” for “(UCH-L3)”, “2.5 nM.” for “13 pM.”

[1] = tested on: HCT116 colon cancer cells; test: HCT116 cell viability and proliferation assay (MTS); type: cell-based; details: Homo sapiens, HCT-116, 72 h, HCT116, 72 hours, read-out: Cell viability (MTS): HCT116 GI50 Day3
Method in brief: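 HCT116 cells (10^3/well) treated in triplicate 24 h after seeding with 50 nM–100 μM compound, 0.5% final DMSO, for 72 h at 37 °C. Viability by MTS (2 h), absorbance 492 nm; GI50 from sigmoidal variable-slope fit, mean of three independent experiments.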

Row | Compound | IC50 (UCH-L3) [µM] | IC50 (UCH-L1) [µM] | GI50 [1] [µM]
1 | O=C(NCc1cccc(CN2CCCC2)c1)c1ccc2c(Cl)c3c(nc2c1)CCCC3 [Example 18, 9-chloro-N-(3-(pyrrolidin-1-ylmethyl)benzyl)-5,6,7,8-tetrahydroacridine-3-carboxamide] | > 200 | > 200 | 4.3
2 | CC1CCCCN1CCCNC(=O)c1ccc2c(Cl)c3c(nc2c1)CCCC3 (stereo not drawn) [Example 20, 9-chloro-N-(3-(2-methylpiperidin-1-yl)propyl)-516,7,8-tetrahydroacridine-3-carboxamide] | > 200 | > 200 | 8.4
3 | CN1CCCC1CCNC(=O)c1ccc2c(Cl)c3c(nc2c1)CCCC3 (stereo not drawn) [Example 17, 9-chloro-N-(2-(1-methylpyrrolidin-2-yl)ethyl)-5,6,7,8-tetrahydroacridino-3-carboxamide] | > 200 | > 200 | 6.9
4 | CN(C)c1ccc(CN2CCC(CNC(=O)c3ccc4c(Cl)c5c(nc4c3)CCCC5)CC2)cc1 [Example 23] | > 200 | > 200 | 1.8

Second part, the molecule after the results:

Row | IC50 (UCH-L3) [µM] | IC50 (UCH-L1) [µM] | GI50 [1] [µM] | Compound
5 | > 200 | > 200 | 8.3 | O=C(NCC1CCNCC1)c1ccc2c(Cl)c3c(nc2c1)CCCC3 [Example 24, 9-chloro-N-((piperidin-4-yl)methyl)-5,6,7,8-tetrahydroacridine-3-carboxamide]
6 | > 200 | > 200 | 3.3 | COc1ccc(CN2CCC(CNC(=O)c3ccc4c(Cl)c5c(nc4c3)CCCC5)CC2)cc1 [Example 22, 9-chloro-N-((1-(4-methoxybenzyl)piperidin-4-yl)methyl)-5,6,7,8-tetrahydroacridine-3-carboxamide]
7 | > 200 | > 200 | 5.6 | O=C(NCC(CN1CCCC1)C(O)c1ccccc1)c1ccc2c(Cl)c3c(nc2c1)CCCC3 (stereo not drawn) [Example 25, 9-chloro-N-(3-hydroxy-3-phenyl-2-pyrrolidin-1-ylmethylpropyl)-5,6,7,8-tetrahydroacridine-3-carboxamide]
8 | > 200 | > 200 | 4.1 | O=C(Nc1cccc(CN2CCCC2)c1)c1ccc2c(Cl)c3c(nc2c1)CCCC3 [Example 19, 9-chloro-N-(3-(pyrrolidin-1-ylmethyl)phenyl)-5.6,7,8-tetrahydroacridine-3-carboxamide]
9 | > 200 | > 200 | 3.5 | O=C(NCc1ccc(CN2CCCC2)cc1)c1ccc2c(Cl)c3c(nc2c1)CCCC3 [Example 21, 9-chloro-N-(4-(pyrrolidin-1-ylmethyl)benzyl)-5,6,7,8-tetrahydroacridine-3-carboxamide]
